According to patent US20030165854A1, “Marker genes responding to treatment with toxins” (priority 2000, published 2003):

Assays:
P450 3A2 = experiment: Gene expression (fold change) of known genes in toxin-treated rat liver, cDNA library transcript imaging; assay type: in vivo; conditions: clofibrate-treated rat liver, vs untreated liver
[1] = test system: rat liver cDNAs SEQ ID NOs: 1-61; assay type: in vivo, Han/Wistar rat; conditions: Strain HW
[2] = test system: rat liver cDNAs SEQ ID NOs: 62-202; experiment: Abundance of cDNA clones in toxin-treated rat liver cDNA libraries (transcript imaging), Sprague-Dawley; assay type: in vivo; conditions: Strain SD
Description: Columns 1 and 2 show the SEQ ID NO and Clone ID of the rat cDNA clone, respectively.
Abundance of a clone was determined by counting the number of clones present in a master cluster.
Abundance of a particular cDNA in the library profile was determined by summing the total number of copies of the clones present in the master cluster in that library.

CCOC(=O)C(C)(C)Oc1ccc(Cl)cc1 [clofibrate]
4: Maximum Abundance, SEQ ID NO 11, Clone ID 700131403 [1] | Maximum Abundance, SEQ ID NO 10, Clone ID 700139239 ([1]; Sex M) | Maximum Abundance, SEQ ID NO 111, Clone ID 700269330 [2] | Maximum Abundance, SEQ ID NO 163, Clone ID 700025278 [2] | Maximum Abundance, SEQ ID NO 166, Clone ID 700144043 [2] | Maximum Abundance, SEQ ID NO 168, Clone ID 700247621 [2] | Maximum Abundance, SEQ ID NO 173, Clone ID 700323707 [2] | Maximum Abundance, SEQ ID NO 174, Clone ID 700513589 [2] | Maximum Abundance, SEQ ID NO 113, Clone ID 700230724 ([2]; Sex F) | Maximum Abundance, SEQ ID NO 114, Clone ID 700307025 ([2]; Sex F) | Maximum Abundance, SEQ ID NO 120, Clone ID 701396706 ([2]; Sex F)
0.63 fold change: Gene expression (fold change) P450 3A2 (P450 3A2; 3 days)
0.50 fold change: Gene expression (fold change) P450 3A2 (P450 3A2; 7 days)
5: Maximum Abundance, SEQ ID NO 110, Clone ID 700192259 [2] | Maximum Abundance, SEQ ID NO 112, Clone ID 701317696 [2] | Maximum Abundance, SEQ ID NO 170, Clone ID 700272988 [2] | Maximum Abundance, SEQ ID NO 185, Clone ID 701884534 [2] | Maximum Abundance, SEQ ID NO 187, Clone ID 700933309 [2]
0.45 fold change: Gene expression (fold change) P450 3A2 (P450 3A2; 28 days)
6: Maximum Abundance, SEQ ID NO 9, Clone ID 700308908 [1] | Maximum Abundance, SEQ ID NO 164, Clone ID 700122008 [2] | Maximum Abundance, SEQ ID NO 180, Clone ID 701429135 [2] | Maximum Abundance, SEQ ID NO 186, Clone ID 700068662 [2]
3: Maximum Abundance, SEQ ID NO 165, Clone ID 700136662 [2] | Maximum Abundance, SEQ ID NO 167, Clone ID 700177423 [2] | Maximum Abundance, SEQ ID NO 169, Clone ID 700251379 [2] | Maximum Abundance, SEQ ID NO 171, Clone ID 700306859 [2] | Maximum Abundance, SEQ ID NO 172, Clone ID 700307013 [2] | Maximum Abundance, SEQ ID NO 175, Clone ID 700538641 [2] | Maximum Abundance, SEQ ID NO 176, Clone ID 700592657 [2] | Maximum Abundance, SEQ ID NO 177, Clone ID 701190918 [2] | Maximum Abundance, SEQ ID NO 178, Clone ID 701313456 [2] | Maximum Abundance, SEQ ID NO 179, Clone ID 701397319 [2] | Maximum Abundance, SEQ ID NO 181, Clone ID 701429654 [2] | Maximum Abundance, SEQ ID NO 182, Clone ID 701458841 [2] | Maximum Abundance, SEQ ID NO 183, Clone ID 701470083 [2] | Maximum Abundance, SEQ ID NO 184, Clone ID 701562608 [2] | Maximum Abundance, SEQ ID NO 201, Clone ID 700062503 [2] | Maximum Abundance, SEQ ID NO 115, Clone ID 700361295 ([2]; Sex F) | Maximum Abundance, SEQ ID NO 116, Clone ID 700420930 ([2]; Sex F) | Maximum Abundance, SEQ ID NO 117, Clone ID 700526706 ([2]; Sex F) | Maximum Abundance, SEQ ID NO 118, Clone ID 700635732 ([2]; Sex F) | Maximum Abundance, SEQ ID NO 119, Clone ID 700824178 ([2]; Sex F) | Maximum Abundance, SEQ ID NO 121, Clone ID 701475987 ([2]; Sex F) | Maximum Abundance, SEQ ID NO 122, Clone ID 701621131 ([2]; Sex F) | Maximum Abundance, SEQ ID NO 123, Clone ID 701879551 ([2]; Sex F) | Maximum Abundance, SEQ ID NO 124, Clone ID 701883446 ([2]; Sex F) | Maximum Abundance, SEQ ID NO 125, Clone ID 701883859 ([2]; Sex F) | Maximum Abundance, SEQ ID NO 189, Clone ID 700064545 ([2]; Sex F) | Maximum Abundance, SEQ ID NO 191, Clone ID 700146747 ([2]; Sex F) | Maximum Abundance, SEQ ID NO 192, Clone ID 700589657 ([2]; Sex F)
0.14 fold change: Gene expression (fold change) P450 3A2 (P450 3A2; 12 hours)
1.2 fold change: Gene expression (fold change) P450 3A2 (P450 3A2; 24 hours)
2: Maximum Abundance, SEQ ID NO 188, Clone ID 700024288 ([2]; Sex F) | Maximum Abundance, SEQ ID NO 190, Clone ID 700066933 ([2]; Sex F)
